This is an account of results in patent publication US11236077B2, “Fruquintinib eutectic crystal, preparation method therefor, composition, and uses thereof” (Hangzhou SoliPharma Co., Ltd., priority 2018, dated 2022).

In brackets after ≈: the same amount, converted by molar mass.

Common to all, as to format: physicochemical
Series [1] can be described thus: Solubility in water. The following applies: for Solubility in Water / solubility at 1 min: 10 mg in 10 ml deionized water, ultrasound 1 min, filtration, HPLC; for Solubility in Water: 25° C.; for solubility in 25° C. water compared with known fruquintinib Form I: Comparative Example 1, result in words; for solubility at 1 min: deionized water, 25 °C, water, thermodynamic from solid. The method, then:
High performance liquid chromatography (HPLC) data were collected on Ultimate 3000 and the concentration was tested with the external standard method. […] The specific operation steps: respectively took 10 mg of each of the above samples and put them into a 20 ml glass bottle respectively, added 10 ml deionized water, placed the solution at 25° C. ultrasound for 1 min, then took the samples for filtration and analyzed their concentrations using HPLC; calculated their solubility in water respectively.

Series [2] in a line: Solubility in water. The settings on record: background statement, conditions not given.
The nature of series [3]: Crystal slurry experiment in water (crystalline form stability). The settings on record: Comparative Example 2, result in words. The method, then: X-ray powder diffraction (XRPD): performed on Bruker D8 Advance diffractometer. Samples were tested at room temperature. Testing conditions: 2θ scan range 3 to 40°, step size 0.02° and speed 0.2 s/step. […] The specific operation steps: respectively took 10 mg of each of the above samples and put them into a 5 ml glass bottle respectively, added 2 ml deionized water, stirred the solution at room temperature for 24 hours, then took the samples for filtration; and analyzed their crystalline forms with XRD.

A short description of series [4]: Storage stability in desiccators at room temperature and RH 10% to 90%. The following applies: room temperature, 4 months.

In the case of `CNC(=O)c1c(C)oc2cc(Oc3ncnc4cc(OC)c(OC)cc34)ccc12` [Known fruquintinib Crystalline Form I, 6-(6,7-dimethoxyquinazoline-4-oxy)-N,2-dimethyl benzofuran-3-formamide, reference compound], the “Solubility in Water” value in series [1] was 2.2 µg/mL (≈ 5.59 µM). Further, the “solubility in water (inventors' finding)” value in series [2] is on record as “poor”.

For `CNC(=O)c1c(C)oc2cc(Oc3ncnc4cc(OC)c(OC)cc34)ccc12` [Known fruquintinib Crystalline Form VII, 6-(6,7-dimethoxyquinazoline-4-oxy)-N,2-dimethyl benzofuran-3-formamide, reference compound], the “Solubility in Water” value in series [1] was 2.6 µg/mL (≈ 6.61 µM).

Usually solubility stands for the dissolved amount per volume that the medium holds. Turning to `CNC(=O)c1c(C)oc2cc(Oc3ncnc4cc(OC)c(OC)cc34)ccc12.O=C(O)CC(=O)O`, in series [1], the “solubility in 25° C. water compared with known fruquintinib Form I” value was “higher” and the concentration in solution (solubility at 1 min) was 12 µg/mL. In addition, in series [3], the “crystalline form after having been stirred in water for 24 hours” value (“crystalline form” below) is reported as “kept its form unchanged”. The “appearance, XRPD and melting point after storage” value (“appearance … after storage” below) in series [4] is listed as “unchanged”.

For `CNC(=O)c1c(C)oc2cc(Oc3ncnc4cc(OC)c(OC)cc34)ccc12` [Known fruquintinib Crystalline Form III, 6-(6,7-dimethoxyquinazoline-4-oxy)-N,2-dimethyl benzofuran-3-formamide, reference compound], in series [1], the “Solubility in Water” value stood at 2.1 µg/mL (≈ 5.34 µM).

As to `CNC(=O)c1c(C)oc2cc(Oc3ncnc4cc(OC)c(OC)cc34)ccc12` [Compound A], the “Solubility in Water” value in series [1] (listed as Crystalline Form of Compound A of the present invention) came to 9.9 µg/mL (≈ 25.2 µM). The “solubility in 25° C. water compared with known fruquintinib Form I” value in series [1] is listed as “higher”. The “crystalline form” value in series [3] was “kept its form unchanged”. Moreover, the “appearance … after storage” value in series [4] is “unchanged”.

Take `CNC(=O)c1c(C)oc2cc(Oc3ncnc4cc(OC)c(OC)cc34)ccc12.O=C(O)/C=C\C(=O)O`: in series [1], the “solubility in 25° C. water compared with known fruquintinib Form I” value is reported as “higher” and the solubility at 1 min stood at 9.4 µg/mL. For the same molecule, in series [3], the “crystalline form” value is reported as “kept its form unchanged”. Moreover, the “appearance … after storage” value in series [4] is “unchanged”.
